Experimental findings from patent publication US5023256A, “Pharmacologically active aminoimidazopyridines” (Dompe Farmaceutici S.p.A., priority 1989, dated 1991) are described below.

As a reminder, the ED50 is the dose that gives a 50% effect, or the effect in half of the subjects. A high value points to weaker potency. The term LD50 denotes the dose at which mortality reaches 50%. A lower LD50 goes with a more toxic substance.

The structures appear in SMILES notation.

The subject of series [1] is histamine-induced mortality. Briefly: Effect on the Mortality Induced by Histamine. Type of series: in vivo, male albino guinea pigs (Dunkin-Hartley). As to conditions: Cavia porcellus, po; guinea pig, p.o. 60 minutes before 1,25 mg/kg i.v. histamine dihydrochloride; amount inhibiting 50% of mortality. The procedure:
Effect on the Mortality Induced by Histamine
The method described by Romer D. et al. (Med. Welt, 17, 791, 1966) was followed and the tests were carried out on male albino guinea pigs (Dunkin-Hartley), weighing 350-450 g, which were kept in cages with a grid floor, on an empty stomach for 24 hrs with water ad libitum.
The compounds under examination were dissolved in 0.5% carboxy methylcellulose and orally administered to the animals 60 minutes before that the same animals were intravenously treated with 1,25 mg/kg of histamine dihydrochloride dissolved in saline solution. In the control animals, treated with carboxymethyl cellulose, the histamine dihydrochloride solution, intravenously administered, induced a 100% mortality.
It was evaluated ED50 which corresponds to the amount of the compound able to inhibit 50% of the mortality induced by histamine: the estimation of ED50 was carried out applying the `probit` method (Finney D. J., Statistical methods in biological assay, pg 512, 1957).

A short description of series [2]: Evaluation of the Lethal Dose50 (LD50), acute toxicity. The settings on record: in vivo, ip; mouse, 14 days observation, probit method. The procedure:
Evaluation of the Lethal Dose50 (LD50)
The tests were carried out on Swiss Nos (Nossan; Correzzana, Milano) mice weighing 18-20 g each. The animals, divided into groups of 10 animals each (5M+5F), were on an empty stomach for 18 hrs, with water ad libitum, and kept in cages with a grid floor. The compounds (I) were dissolved in water or suspended in 0.5% carboxymethylcellulose and intraperitoneally administered to the animals (10 ml/kg). The number of mice which died within the following 6 hours was recorded. Upon the expiry of the sixth hour, the animals were allowed to eat up to the end of the experimentation which lasted 14 days. During this period all the toxic symptoms and the mortality occurring were noted.
The animals which died during the test period and those which were sacrificed at the end of the same, underwent autopsy for a macroscopic examination of their main organs. The experimental data were statistically compared with the X^2 method and LD50 was extrapolated by the `probit` method.

Series [3] concerns sleeping time induced by pentobarbital. Briefly: Effect on the Sleeping Time Induced by Pentobarbital. In kind it is in vivo, male mice Swiss-Nos. The settings on record: mouse, 25 mg/kg i.p. 30 minutes before 40 mg/kg i.p. sodium pentobarbital; increase vs control group. The procedure:
Effect on the Sleeping Time Induced by Pentobarbital The tests were carried out on male mice Swiss-Nos (Nossan, Correzzana, Milano) weighing 20-24 g, on an empty stomach for 18 hrs, according to the method described by R. Turner (Screening Methods in Pharmacology, Acad. Press, pg 70, 1965). […] The narcosis start was considered from the moment when the animal, lying on its back, lost its straightening reflex. The narcosis end was considered from the moment when the animal recovered such reflex. The carrier or the compounds under examination were administered by intraperitoneal route at the dose 25 mg/kg, 30 minutes before the pentobarbital administration. The resulting data are expressed as sleeping time increase percent in the treated animal group in comparison to the control animal group.

As to `CN1CCN(c2nc3cccnc3n2Cc2ccccc2)CC1.O=C(O)/C=C/C(=O)O` [Example 1, 3-Benzyl-2-(4-methylpiperazin-1-yl)-3H-imidazo[4,5-b]pyridine fumarate], the ED50 in series [1] is 0.033 mg/kg. The 50% lethal dose (LD50) at 336 h in series [2] was greater than 100 mg/kg. Also, in series [3], the “Increase of sleeping time induced by pentobarbital” value (“Increase of sleeping time induced” for short) is recorded as 183%.
Molecule `CN(C)CCNc1nc2cccnc2n1Cc1ccccc1.Cl.Cl` [Example 2, 3-Benzyl-2-(2-dimethylaminoethylamino)-3H-imidazo[4,5-b]pyridine dihydrochloride] gave an LD50 at 336 h in series [2] greater than 100 mg/kg. For the same molecule, the “Increase of sleeping time induced” value in series [3] was determined as 76%.
Consider `CC(C)(C)c1ccc(C(O)CCCN2CCC(C(O)(c3ccccc3)c3ccccc3)CC2)cc1` (stereo not drawn) [Terfenadine, reference compound], for which the “Increase of sleeping time induced” value in series [3] turned out to be 44%.
